The text below walks through data of patent EP2245032B1, “FOLATES, COMPOSITIONS AND USES THEREOF” (priority 2008, dated 2009).

Structures can show the parent of a compound that is named as a salt.

The conditions of data set [1]: after twelve months; US 6,441,168 (Example 1); 525600 min; cited from earlier work.
Data set [2] is described as follows: Stability of the powder in sealed aluminium foil bag, purity and titre by HPLC after 6 and 12 months. The format is physicochemical. Particulars: airtight container, protected from light; for Starting values Purity / Starting values Titre: start. As for the experimental part: The stability of the compounds listed in the following table, under powder form and in sealed aluminium foil bag, was tested, keeping the samples in airtight container, protected from light and measuring the purity and the titre thereof after 6 and 12 months.
In particular, the stability of the acid moiety was observed by HPLC, detecting the purity and titre thereof.

For data set [3] the following is noted: general knowledge stated in the introduction; cited from earlier work.

`CN1c2c(nc(N)[nH]c2=O)NCC1CNc1ccc(C(=O)NC(CCC(=O)O)C(=O)O)cc1` [5-methyl-(6S)-tetrahydrofolic acid calcium salts]: the titre decrease entry in data set [1] is “about 1%”.
Take `CN1c2c(nc(N)[nH]c2=O)NCC1CNc1ccc(C(=O)N[C@@H](CCC(=O)O)C(=O)O)cc1` (stereo partly drawn) [D-GAL (6R,S)-5-MTHF, D-galactosamine 5-methyl-(6R,S)-tetrahydrofolate]: in data set [2], the “After 6 months Purity” value is listed as 98.9, the “After 6 months Titre” value is 55.2, the “After 12 months Purity” value is reported as 98.7 and the “After 12 months Titre” value worked out at 55.3. In data set [2], the “Starting values Purity” value came to 99.1 and the “Starting values Titre” value is 55.5.
Consider `Nc1nc2ncc(CNc3ccc(C(=O)N[C@@H](CCC(=O)O)C(=O)O)cc3)nc2c(=O)[nH]1` [D-GAL folate, D-galactosamine L-folate], for which, in data set [2], the “After 6 months Purity” value is on record as 99.1, the “After 6 months Titre” value is 54.5, the “After 12 months Purity” value turned out to be 98.7 and the “After 12 months Titre” value worked out at 54.2. Also, in data set [2], the “Starting values Purity” value stood at 99.2 and the “Starting values Titre” value turned out to be 54.8.
On to `CN1c2c(nc(N)[nH]c2=O)NCC1CNc1ccc(C(=O)N[C@@H](CCC(=O)O)C(=O)O)cc1` (stereo partly drawn) [D-GLU 5-MTHF, D-glucosamine 5-methyl-(6R,S)-tetrahydrofolate], for which, in data set [2], the “After 6 months Purity” value came to 98.9, the “After 6 months Titre” value came out at 55.0, the “After 12 months Purity” value stood at 99.0 and the “After 12 months Titre” value is given as 54.8. In data set [2], the “Starting values Purity” value was 99.1 and the “Starting values Titre” value turned out to be 55.2.
As for `CN1c2c(nc(N)[nH]c2=O)NCC1CNc1ccc(C(=O)NC(CCC(=O)O)C(=O)O)cc1` [D-GLU (6S)-5-MTHF, D-glucosamine 5-methyl-(6S)-tetrahydrofolate], in data set [2], the “After 6 months Purity” value was found to be 99.0, the “After 6 months Titre” value is listed as 55.4, the “After 12 months Purity” value came out at 98.5 and the “After 12 months Titre” value was found to be 55.1. Besides, in data set [2], the “Starting values Purity” value was found to be 99.3 and the “Starting values Titre” value stood at 55.7.
As for `Nc1nc2ncc(CNc3ccc(C(=O)N[C@@H](CCC(=O)O)C(=O)O)cc3)nc2c(=O)[nH]1` [D-GLU folate, D-glucosamine L-folate], in data set [2], the “After 6 months Purity” value was determined as 98.8, the “After 6 months Titre” value stood at 54.3, the “After 12 months Purity” value is reported as 98.7 and the “After 12 months Titre” value was found to be 54.0. For the same compound, in data set [2], the “Starting values Purity” value is 99.1 and the “Starting values Titre” value was determined as 54.6.
With `Nc1nc2ncc(CNc3ccc(C(=O)N[C@@H](CCC(=O)O)C(=O)O)cc3)nc2c(=O)[nH]1` [Folic acid, N-[4-[[(2-amino-1,4-dihydro-4-oxo-6-pteridinyl)methyl]amino]benzoyl]-L-glutamic acid], the “solubility in water (in words)” value in data set [3] is “very slightly soluble in water”.
